Data published in patent publication US9757403B2, “Glycan therapeutics and related methods thereof” (KALEIDO BIOSCIENCES, INC., priority 2015, dated 2017).

Test system: Clostridium difficile (strain VPI 10463 (ATCC-43255))
Experiment: Mouse model of Clostridium difficile infection, disease-associated phenotypes and spore carriage
Type: in vivo, Mice (female C57BL/6)
Method: This experiment was conducted to analyze the effects of glycan therapeutics in a mouse model of Clostridium difficile infection (Chen et al, 2008, A Mouse Model of Clostridium difficile-Associated Disease. Gastroenterology 135(6), 1984-1992). In this model, normal mice were exposed to an antibiotic regimen that renders them susceptible to C. difficile infection and disease symptoms, similar with respect to their development and manifestation of human clinical disease. In humans, the disease is most often the result of exposure to broad spectrum antibiotics which is thought to result in intestinal dysbiosis and subsequent increased colonic colonization with C. difficile. […]
Disease-associated phenotypes were recorded for a duration of ten days starting on the day of Clostridium difficile challenge (on day 0) through day 10. The phenotypes, including lethargy, hunched posture and ruffled coat, wet tail/abdomen and hypothermia were scored from 0 to 4: Normal=0; Lethargic=1; Lethargic+Hunched=2; Lethargic+Hunched+Wet tail/abdomen (diarrhea)=3; and Lethargic+Hunched+Wet tail/abdomen+Hypothermic=4. Death (day 0 to day 10 or 11) and weight (day 1 to day 7 and day 10) of the animals was also monitored and recorded.
In addition, carriage of Clostridium difficile spores, which is indicative of Clostridium difficile gut colonization in both mice and humans, was assessed daily from day 0 to day 6. […]

SMILES: CN[C@H](CC(C)C)C(=O)N[C@H]1C(=O)N[C@@H](CC(N)=O)C(=O)N[C@H]2C(=O)N[C@H]3C(=O)N[C@H](C(=O)N[C@H](C(=O)O)c4cc(O)cc(O)c4-c4cc3ccc4O)[C@H](O)c3ccc(c(Cl)c3)Oc3cc2cc(c3O[C@@H]2O[C@H](CO)[C@@H](O)[C@H](O)[C@H]2O[C@H]2C[C@](C)(N)[C@H](O)[C@H](C)O2)Oc2ccc(cc2Cl)[C@H]1O [Vancomycin, vancomycin]
- clinical signs on day 10 (PO gavage QD days 0 to 4): exhibited clinical signs
- clinical score of survivors (score 0 to 4, after end of treatment, days 7 to 10): above 0
